Patent US20240174690A1, “ANNULATED 2-AMINO-3-CYANO THIOPHENES AND DERIVATIVES FOR THE TREATMENT OF CANCER” (BOEHRINGER INGELHEIM INTERNATIONAL GMBH, priority 2021, published 2024)
In brackets after ≈: the same amount, converted by molar mass. Like-named read-outs stand apart in the source and are kept apart here.

Assays:
[1] = tested on: KRAS G12C-dependent Ba/F3 cells; experiment: Ba/F3 proliferation assay, KRAS G12C; assay type: cell-based; settings: AlamarBlue
How it was run: (§1)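 Viability is measured as AlamarBlue fluorescence in Ba/F3 cells that depend on a transduced mutant KRAS isoform for growth without IL-3. Each treatment is run in technical duplicate, and dose-response curves are fitted.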

[2] = tested on: KRAS G12V-dependent Ba/F3 cells; experiment: Ba/F3 proliferation assay, KRAS G12V; assay type: cell-based; settings: AlamarBlue;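 further: proliferation IC50 in KRAS G12V-dependent Ba/F3 cells read by AlamarBlue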
How it was run: as §1

NCI-H358 cells = experiment: NCI-H358 CTG proliferation assay (120 h) (NSCLC, G12C); assay type: cell-based, human
How it was run: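 NCI-H358 cells (KRAS G12C) were seeded at 2000/well (assay 1) or 200/well (assay 2) in RPMI-1640 + 10% FCS and dosed with a logarithmic series, DMSO-normalized. After 120 h, viability was read by CellTiter-Glo luminescence as percent of DMSO control, with a T0 read at dosing. IC50 came from a four-parameter fit.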

[3] = Metabolic (microsomal) stability assay, human liver microsomes (HLM); assay type: in vitro ADME; settings: predicted clearance as percent of liver blood flow, 1 μM
How it was run: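 LC-MS/MS tracked parent disappearance at 0, 5, 15, 30 and 60 min in NADPH-initiated incubations with 1 mg/mL human microsomal protein and 1 μM compound at 37°C, pH 7.5. First-order fits gave intrinsic clearance, which was scaled up and reported as % QH. NADPH-free controls were also run.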

[4] = Plasma protein binding assay (PPB), equilibrium dialysis, 10% FCS in PBS; assay type: in vitro ADME; settings: for fraction unbound: bovine, read-out: PPB 10% FCS (% fu)
How it was run: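 Equilibrium dialysis (5-10 kg/mol cut-off membrane) of 1-10 μmol/L test compound in 10% FCS/PBS against PBS with or without dextran, 3-5 h at 37° C. Compound in each chamber quantified by LC-MS after protein precipitation; fu calculated from Cserum and Cbuffer.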

[5] = Solubility measurement (DMSO solution method), McIlvaine buffer pH 4.5 or 6.8; assay type: physicochemical; settings: DMSO stock diluted to 250 μM, 24 h shaking at ambient temperature; for solubility at 24 h: aqueous buffer, kinetic from dmso stock
How it was run: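 DMSO stock diluted into McIlvaine buffer, pH 4.5 or 6.8, to 250 µM final, shaken 24 h at ambient temperature. Precipitate removed by filtration; filtrate quantified by LC-UV against a fully dissolved reference in acetonitrile/water 1:1.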

[6] = Homo sapiens, assay 2, CTG, read-out: H358 (assay 2) IC50
[7] = McIlvaine buffer pH 4.5, read-out: solubility pH 4.5
[8] = McIlvaine buffer pH 6.8, read-out: solubility pH 6.8

| SMILES | IC50 ([1]; 72 h) [nM] | IC50 ([2]; 72 h) [nM] | IC50 (NCI-H358 cells; assay 2, CTG, read-out: H358 (assay 2) IC50) [nM] | HLM QH [3] [%] | PPB 10% FCS (% fu) ([4]; fraction unbound) | solubility pH 4.5 ([5]; McIlvaine buffer pH 4.5) [μg/ml] | solubility pH 6.8 ([5]; McIlvaine buffer pH 6.8) [μg/ml] | IC50 ([1]; Mus musculus, BaF3, 72 h) [nM] | IC50 ([2]; Mus musculus, BaF3, 72 h) [nM] | IC50 (NCI-H358 cells; [6]) [nM] | fraction unbound [4] | solubility at 24 h [5, 7] [µg/mL] | solubility at 24 h [5, 8] [µg/mL] | IC50 (NCI-H358 cells; Homo sapiens, assay 1, CTG, read-out: H358 (assay 1) IC50) [nM] |
| --- | --- | --- | --- | --- | --- | --- | --- | --- | --- | --- | --- | --- | --- | --- |
| C[C@H](Oc1cc(-n2ccc(C(=O)N[C@H]3CCOC3)n2)nc(-c2noc3c2CCC[C@@]32CCCc3sc(N)c(C#N)c32)n1)[C@@H]1CCCN1C [II-193] | 2 | 2 | 1 | 31 | 20 | 15 | <1 |  |  |  |  |  |  |  |
| C[C@H](Oc1cc(N2CCNC3(CC3)C2)nc(-c2noc3c2CCC[C@@]32CCCc3sc(N)c(C#N)c32)n1)[C@@H]1C[C@@H](F)CN1C [II-165] |  |  |  | 61 |  |  |  | 109 | 121 | 166 | 0.16 | > 142 | 49 (≈ 79.2 µM) |  |
| C[C@H](Oc1cc(-c2ccn([C@H]3CCOC3)n2)nc(-c2noc3c2CCC[C@@]32CCCc3sc(N)c(C#N)c32)n1)[C@@H]1CCCN1C [II-127] |  |  |  | <24 |  |  |  | 13 | 13 | 400 | 0.08 | > 127 | 39 (≈ 62.2 µM) |  |
| C[C@H](Oc1cc(N2CCOC2=O)nc(-c2noc3c2CCC[C@@]32CCCc3sc(N)c(C#N)c32)n1)[C@@H]1CCCN1C [II-143] |  |  |  | 57 |  |  |  | 5 | 2 |  | 0.18 | > 123 | 91 (≈ 158 µM) | 25 |
| C[C@H](Oc1cc(-n2ccc(-c3cn(CC4(C)COC4)nn3)n2)nc(-c2noc3c2CCC[C@@]32CCCc3sc(N)c(C#N)c32)n1)[C@@H]1CCCN1C [II-213] |  |  |  | <24 |  |  |  | 11 | 6 | 1 | 0.02 | 23 (≈ 32.5 µM) | 2 (≈ 2.83 µM) |  |
| C[C@H](Oc1cc(N2CCNC[C@]23CCOC3)nc(-c2onc3c2CCC[C@@]32CCCc3sc(N)c(C#N)c32)n1)[C@@H]1CCCN1C [I-12] |  |  |  | 36 |  |  |  | 224 | 343 | 3120 | 0.46 | > 152 | 125 (≈ 198 µM) |  |
| C[C@H](Oc1cc(-n2ccc(C(=O)N(C)C3COC3)n2)nc(-c2noc3c2CCC[C@@]32CCCc3sc(N)c(C#N)c32)n1)[C@@H]1CCCN1C [II-194] |  |  |  | 30 |  |  |  | 4 | 4 | 3 | 0.08 | 116 (≈ 173 µM) | 31 (≈ 46.3 µM) |  |
| C[C@H](Oc1nc(-c2noc3c2CCC[C@@]32CCCc3sc(N)c(C#N)c32)nc(N2CCNC3(CC3)C2)c1F)[C@@H]1C[C@@H](F)CN1C [II-155] |  |  |  | 70 |  |  |  | 169 | 185 | 77 | 0.04 | > 153 | 3 (≈ 4.71 µM) |  |
| C[C@H](Oc1cc(-c2ccn(C[C@H]3CCOC3)n2)nc(-c2noc3c2CCC[C@@]32CCCc3sc(N)c(C#N)c32)n1)[C@@H]1CCCN1C [II-129] |  |  |  | <24 |  |  |  | 11 | 9 | 295 | 0.23 | > 130 | 15 (≈ 23.4 µM) |  |
| C[C@H](Oc1cc(-n2cc3ccn(C[C@H]4CCOC4)c(=O)c3n2)nc(-c2noc3c2CCC[C@@]32CCCc3sc(N)c(C#N)c32)n1)[C@@H]1CCCN1C [II-204] |  |  |  | <24 |  |  |  | 11 | 7 | 5 | 0.03 | 4 (≈ 5.65 µM) | 5 (≈ 7.06 µM) |  |
| C[C@H](Oc1cc(N2Cc3cnn(C)c3C2)nc(-c2onc3c2CCC[C@@]32CCCc3sc(N)c(C#N)c32)n1)[C@@H]1CCCN1C [I-19] |  |  |  | <24 |  |  |  | 76 | 23 | 2160 | 0.48 | 48 (≈ 78.5 µM) | 14 (≈ 22.9 µM) |  |
| CO[C@@H]1C[C@@H]([C@H](C)Oc2cc(N3CCN(C)C4(COC4)C3)nc(-c3noc4c3CCC[C@@]43CCCc4sc(N)c(C#N)c43)n2)N(C)C1 [II-153] |  |  |  | 58 |  |  |  | 1560 | 2380 | 2850 | 0.14 | > 135 | 103 (≈ 156 µM) |  |
| CO[C@H]1CCN(C)[C@@H]1[C@H](C)Oc1cc(-n2ccc(C(=O)N(C)C3COC3)n2)nc(-c2noc3c2CCC[C@@]32CCCc3sc(N)c(C#N)c32)n1 [II-199] |  |  |  | 67 |  |  |  | 3 | 3 | 5 | 0.07 | > 163 | 9 (≈ 12.9 µM) |  |
| C[C@@H]1CN(c2nc(-c3noc4c3CCC[C@@]43CCCc4sc(N)c(C#N)c43)nc(O[C@@H](C)[C@@H]3C[C@@H](F)CN3C)c2F)CC2(CC2)N1 [II-158] |  |  |  | 73 |  |  |  | 135 | 108 | 58 | 0.04 | > 150 | < 1 |  |
| C[C@H](Oc1cc(-c2ccn(Cc3ncco3)n2)nc(-c2noc3c2CCC[C@@]32CCCc3sc(N)c(C#N)c32)n1)[C@@H]1CCCN1C [II-128] |  |  |  | <24 |  |  |  | 10 | 31 | 417 | 0.06 | > 130 | 42 (≈ 65.9 µM) |  |
| C[C@H](Oc1cc(N2CCNC3(COC3)C2)nc(-c2noc3c2CCC[C@@]32CCCc3sc(N)c(C#N)c32)n1)[C@@H]1C[C@@H](F)CN1C [II-150] |  |  |  | 64 |  |  |  | 55 | 77 | 115 | 0.13 | > 149 | 57 (≈ 89.8 µM) |  |
| C[C@H](Oc1cc(-n2cc3ccn(C4CCOCC4)c(=O)c3n2)nc(-c2noc3c2CCC[C@@]32CCCc3sc(N)c(C#N)c32)n1)[C@@H]1CCCN1C [II-206] |  |  |  | <24 |  |  |  | 7 | 3 | 4 | 0.05 | 17 (≈ 24 µM) | 2 (≈ 2.83 µM) |  |
| C[C@H](Oc1cc(-n2ccc(-c3cn([C@@H]4CCOC4)nn3)n2)nc(-c2noc3c2CCC[C@@]32CCCc3sc(N)c(C#N)c32)n1)[C@@H]1CCCN1C [II-211] |  |  |  | <24 |  |  |  | 6 | 3 | 1 | 0.02 | 20 (≈ 28.8 µM) | 4 (≈ 5.77 µM) |  |
